Measurements taken from patent US6528511B2, “Partial fatty acid oxidation inhibitors in the treatment of congestive heart failure” (CV Therapeutics, Inc., priority 2000, dated 2003).
Where two headings read alike, the source gives them in different places. One block for each compound: values may come before it.

Legend:
[1] = Ascending-dose SR bid study in healthy male volunteers, Day 5 pharmacokinetics of racemate and enantiomers; assay type: in vivo, human; conditions: for concentration at 96 h / concentration at 108 h: male, human, plasma, oral; for concentration at 96 h: read-out: C96h; for concentration at 108 h: read-out: C108h; for Differences in pharmacokinetic parameters between enantiomers: multiple dosing with SR formulation
Experimental: This Example evaluated the safety and tolerability of administering racemic ranolazine free base formulations as in Example 3D. The individual and mean concentrations of racemic ranolazine and its enantiomers, (R)-(+)-N-(2,6-dimethylphenyl)-4-[2-hydroxy-3-(2 methoxyphenoxy)-propyl]-1-piperazineacetamide, (S)-(−)-N-(2,6-dimethylphenyl)-4-[2hydroxy-3-(2-methoxyphenoxy)-propyl]-1-piperazineacetamide in human plasma were also determined.
The study was performed with ascending doses of sustained release ranolazine dosage forms. Before and at intervals during and after the dosing period, blood samples were drawn for ranolazine assay and blood pressure, heart rate, ECG and symptoms were monitored throughout. Data summaries were reviewed after each phase before proceeding to the next phase of the study. Eight subjects, all healthy male volunteers aged between 18 and 40 entered and all completed the study and were available for pharmacokinetic and safety analysis. The subjects were each given doses of the various types of ranolazine free base in the form of sustained release tablets including 500 mg and 750 mg tablets or with matching placebo as necessary (2×750 mg size plus 1×500 mg size) to make unit oral doses of 1500 and 2000 mg.
In each phase: one dose bid for four days with a single dose on Day 5. On day 5 each volunteer underwent a full pharmacokinetic profile including supine and erect blood pressure (BP) and heart rate, ECG data, adverse events, clinical chemistry and hematology results, urinalysis results.
These tests were made using two-sided t-tests with estimates of variability from the ANOVA models. Steady state was also assessed by comparing means for C48 h, C72 h and C96 h using a mixed effects ANOVA model and untransformed and log, transformed data. For hemodynamic parameters, Day 1 pre-dose treatment means and Day 5 data were compared across treatments via two-sided t-tests using estimates of variability from mixed effects ANOVA models. Ninety and 95% confidence intervals were calculated for the treatment comparisons. No adjustments were made for multiple comparisons.

[2] = Solubility of ranolazine in aqueous solutions versus solution pH; assay type: physicochemical
[3] = test system: Patients, with or without congestive heart failure, with reproducible angina-limited exercise duration; test: Exercise treadmill tolerance testing (ETT), modified Bruce protocol, crossover versus placebo; assay type: in vivo, human; conditions: 500-1500 mg bid
Experimental: Patients, with or without congestive heart failure were withdrawn from anti-anginal drugs with reproducible anginalimited exercise duration and >1 mm ST depression were randomized to Ran (500 mg bid, 1000 mg bit and 1500 mg bid) and matching placebo (Pbo) in a double-blind, four-period, Latin square crossover design. Exercise treadmill tolerance testing (ETT) was performed following a modified Bruce protocol, at trough (12 hr after dosing) and peak (4 hr after dosing) dosing times.

dogs with heart failure = test: Canine model of congestive heart failure (intracoronary microembolizations), hemodynamic and angiographic measurements; assay type: in vivo, dog; conditions: iv bolus 0.5 mg/kg then 1.0 mg/kg/hr for 40 min
Experimental: The efficacy of ranolazine was studied using a canine model of congestive heart failure. Chronic LV dysfunction and failure was produced by multiple sequential intracoronary embolizations with polystyrene Latex microspheres (70-102 μm in diameter) which results in loss of viable myocardium. In the present study, 13 healthy mongrel dogs weighing between 23 and 25 kg underwent coronary microembolizations to produce heart failure. Intracoronary microembolizations were performed during cardiac catheterization under general anesthesia and sterile conditions. The anesthesia regimen consisted of intravenous oxymorphone hydrochloride (0.22 mg/kg), diazepam (0.17 mg/kg) and sodium pentobarbital (150-250 mg to effect). Dogs underwent an average of 5 microembolization procedures performed 1 to 3 weeks apart. Embolizations were discontinued when LV ejection fraction, determined angiographically, was <30%. Dogs were maintained for a period of 2-3 weeks to ensure that infarctions produced by the last microembolization were completely healed before studies were initiated. […] (The study was approved by the Henry Ford Health System Care of Experimental Animals Committee and conformed to the “Position of the American Heart Association on Research Animal Use,” adopted by the Association in November 1984, and to the Guiding Principles of the American Physiological Society on use of research animals). On the day of the study and following general anesthesia, aortic and LV pressure were measured with a catheter-tip micromanometer (Millar Instruments, Houston, Tex.) positioned through a femoral arteriotomy. Single-plane left ventriculograms were obtained during each catheterization after completion of the hemodynamic measurements with the dog placed on its right side. Ventriculograms were recorded on 35 mm cine film at 30 frames per second during the injection of 20 ml of contrast material (Reno-M-60, Squib, Princeton, N.J.). Correction for image magnification was made with a calibrated radiopaque grid placed at the level of the LV. Left ventricular end-systolic and end-diastolic volumes were calculated from ventricular silhouettes using the area-length method. The LV ejection fraction was calculated as the ratio of the difference of end-diastolic volume and end-systolic volume to end-diastolic volume times 100. Stroke volume was calculated as the difference between LV end-systolic and end-diastolic volumes obtained from the ventriculogram. Cardiac output was calculated as the product of stroke volume and heart rate. Extra systolic and post-extra systolic beats were excluded from all analyses. In each normal or heart failure dog, ranolazine dihydrochloride was administered in saline as an intravenous bolus injection of 0.5 mg/kg followed by a continuous intravenous infusion of 1.0 mg/kg/hr for 40 min. Arterial blood samples were drawn for determination of plasma ranolazine concentration. Samples were obtained at 5, 10, 20, 30, 35 and 40 min after initiation of treatment. Ranolazine was measured by high performance liquid chromatography (HPLC) using mass spectral detection. Following the withdrawal of the final blood sample at 40 min, hemodynamic and angiographic measurements were repeated. Each animal served as its own control. Pre-treatment values were compared to post-treatment values using a two-tailed paired Student's t-test with significance set at p<0.05. Data are presented as the mean±standard error of the mean.

[4] = Arterial plasma ranolazine concentration in normal and heart failure dogs (HPLC-MS); assay type: in vivo, dog; conditions: for Average ranolazine concentration during the final 10 minutes of treatment: dihydrochloride iv bolus 0.5 mg/kg then 1.0 mg/kg/hr for 40 min, mean±SEM
Experimental: In each normal or heart failure dog, ranolazine dihydrochloride was administered in saline as an intravenous bolus injection of 0.5 mg/kg followed by a continuous intravenous infusion of 1.0 mg/kg/hr for 40 min. Arterial blood samples were drawn for determination of plasma ranolazine concentration. Samples were obtained at 5, 10, 20, 30, 35 and 40 min after initiation of treatment. Ranolazine was measured by high performance liquid chromatography (HPLC) using mass spectral detection. Following the withdrawal of the final blood sample at 40 min, hemodynamic and angiographic measurements were repeated.

Cave ([1]; Day 5, 1500 mg SR bid): 2201 ± 1237 ng/mL
Cmin ([1]; Day 5, 1500 mg SR bid): 1514 ± 1201 ng/mL
Degree of fluctuation ([1]; Day 5, 1500 mg SR bid): 0.824 ± 0.443
concentration at 96 h ([1]; 1500 mg SR bid): 2400 ± 1200 ng/mL
concentration at 108 h ([1]; 1500 mg SR bid): 1540 ± 1260 ng/mL
Differences in pharmacokinetic parameters between enantiomers [1]: no differences
Compound: COc1ccccc1OC[C@@H](O)CN1CCN(CC(=O)Nc2c(C)cccc2C)CC1 [(−)S ranolazine, (S)-(−)-N-(2,6-dimethylphenyl)-4-[2hydroxy-3-(2-methoxyphenoxy)-propyl]-1-piperazineacetamide]

Compound: COc1ccccc1OCC(O)CN1CCN(CC(=O)Nc2c(C)cccc2C)CC1 (racemic) [ranolazine, (±)-N-(2,6-dimethylphenyl)-4-[2-hydroxy-3-(2-methoxyphenoxy)-propyl]-1-piperazineacetamide]
USP Solubility Class ([2]; Solution pH 4.81): Freely Soluble
USP Solubility Class ([2]; Solution pH 4.89): Soluble
USP Solubility Class ([2]; Solution pH 4.90): Soluble
USP Solubility Class ([2]; Solution pH 5.04): Soluble
USP Solubility Class ([2]; Solution pH 5.35): Sparingly Soluble
USP Solubility Class ([2]; Solution pH 5.82): Slightly soluble
USP Solubility Class ([2]; Solution pH 6.46): Slightly soluble
USP Solubility Class ([2]; Solution pH 6.73): Very slightly soluble
USP Solubility Class ([2]; Solution pH 7.08): Very slightly soluble
USP Solubility Class ([2]; Solution pH 7.59 (unbuffered water)): Very slightly soluble
USP Solubility Class ([2]; Solution pH 7.79): Very slightly soluble
USP Solubility Class ([2]; Solution pH 12.66): Very slightly soluble
Solubility in aqueous solutions ([2]; pH above about 6.5): relatively insoluble
Cave ([1]; Day 5, 1500 mg SR bid): 4126 ± 1995 ng/mL
Cmin ([1]; Day 5, 1500 mg SR bid): 2932 ± 1918 ng/mL
Degree of fluctuation ([1]; Day 5, 1500 mg SR bid): 0.664 ± 0.336
Cave ([1]; Day 5, 2000 mg SR bid): 5705 ± 2153 ng/mL
Cmin ([1]; Day 5, 2000 mg SR bid): 4149 ± 2228 ng/mL
Degree of fluctuation ([1]; Day 5, 2000 mg SR bid): 0.591 ± 0.240
Steady-state plasma levels attained by ([1]; SR bid dosing, ranolazine free base): ≤ 4 days
concentration at 96 h ([1]; 1500 mg SR bid): 3660 ± 1920 ng/mL
concentration at 108 h ([1]; 1500 mg SR bid): 2940 ± 1940 ng/mL
concentration at 96 h ([1]; 2000 mg SR bid): 5040 ± 1800 ng/mL
concentration at 108 h ([1]; 2000 mg SR bid): 4400 ± 2400 ng/mL
Effects vs. Pbo on rest or exercise blood pressure or heart rate [3]: no clinically meaningful effects
Exercise duration times in comparison to the placebo [3]: improved
Effect on heart rate (dogs with heart failure; post- vs pre-treatment): no significant effects
Effect on mean aortic pressure (dogs with heart failure; post- vs pre-treatment): no significant effects
LV ejection fraction (dogs with heart failure; post- vs pre-treatment): significant increase
LV peak+dP/dt (dogs with heart failure; post- vs pre-treatment): significant increase
LV stroke volume (dogs with heart failure; post- vs pre-treatment): significant increase
LV peak−dP/dt (diastolic function) (dogs with heart failure; data not shown): increase
Average ranolazine concentration during the final 10 minutes of treatment ([4]; dogs with heart failure): 0.33 ± 0.04 µg/mL
Time by which arterial ranolazine levels stabilized following the bolus injection ([4]; iv bolus plus infusion, dogs): ≤ 10 min
Average ranolazine concentration during the final 10 minutes of treatment ([4]; normal dogs): 0.3 ± 0.02 µg/mL

Cave ([1]; Day 5, 1500 mg SR bid): 2144 ± 1115 ng/mL
Cmin ([1]; Day 5, 1500 mg SR bid): 1436 ± 1046 ng/mL
Degree of fluctuation ([1]; Day 5, 1500 mg SR bid): 0.833 ± 0.402
concentration at 96 h ([1]; 1500 mg SR bid): 2010 ± 1140 ng/mL
concentration at 108 h ([1]; 1500 mg SR bid): 1450 ± 1070 ng/mL
Differences in pharmacokinetic parameters between enantiomers [1]: no differences
Compound: COc1ccccc1OC[C@H](O)CN1CCN(CC(=O)Nc2c(C)cccc2C)CC1 [(+)R ranolazine, (R)-(+)-N-(2,6-dimethylphenyl)-4-[2-hydroxy-3-(2 methoxyphenoxy)-propyl]-1-piperazineacetamide]
